Test results as given in US6358885B1, “Substituted phenylheterocyclic herbicides” (Mississippi State University, priority 1992, dated 2002).

How the values were obtained:
Assay in all cases: Test B preemergence/postemergence greenhouse plant response rating 0 to 10
[1] = system: velvetleaf; assay type: in vivo, Abutilon theophrasti; details: for Plant response rating, Velvetleaf: 0 to 10 scale
In short: (§1)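 Test chemicals, dissolved in a non-phytotoxic solvent, were applied to soil at planting and, at the same time, over foliage of seedlings at the one to four leaf stage.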

[2] = system: wheat; assay type: in vivo, Triticum aestivum; details: for Plant response rating, Wheat: 0 to 10 scale
In short: as §1

[3] = system: wild oat; assay type: in vivo, Avena fatua; details: for Plant response rating, Wild oat: 0 to 10 scale
In short: as §1

[4] = system: wild buckwheat; assay type: in vivo, Polygonum convolvulus; details: for Plant response rating, Wild buckwheat: 0 to 10 scale
In short: as §1

[5] = system: sugar beet; assay type: in vivo, Beta vulgaris; details: for Plant response rating, Sugar beet: 0 to 10 scale
In short: as §1

[6] = system: chickweed; assay type: in vivo, Stellaria media; details: for Plant response rating, Chickweed: 0 to 10 scale
In short: as §1

[7] = system: rice; assay type: in vivo, Oryza sativa; details: for Plant response rating, Rice: 0 to 10 scale
In short: as §1

[8] = system: lambsquarters; assay type: in vivo, Chenopodium album; details: for Plant response rating, Lambsquarter: 0 to 10 scale
In short: as §1

[9] = system: soybean; assay type: in vivo, Glycine max; details: for Plant response rating, Soybean: 0 to 10 scale
In short: as §1

[10] = system: barley; assay type: in vivo, Hordeum vulgare; details: for Plant response rating, Barley: 0 to 10 scale
In short: as §1

[11] = system: barnyardgrass; assay type: in vivo, Echinochloa crus-galli; details: for Plant response rating, Barnyardgrass: 0 to 10 scale
In short: as §1

[12] = system: corn; assay type: in vivo, Zea mays; details: for Plant response rating, Corn: 0 to 10 scale
In short: as §1

[13] = system: rape; assay type: in vivo, Brassica napus; details: for Plant response rating, Rape: 0 to 10 scale
In short: as §1

[14] = system: purple nutsedge; assay type: in vivo, Cyperus rotundus; details: for Plant response rating, Nutsedge: 0 to 10 scale
In short: as §1

[15] = system: giant foxtail; assay type: in vivo, Setaria faberii; details: for Plant response rating, Giant foxtail: 0 to 10 scale
In short: as §1

[16] = system: cheatgrass; assay type: in vivo, Bromus secalinus; details: for Plant response rating, Cheatgrass: 0 to 10 scale
In short: as §1

[17] = system: crabgrass; assay type: in vivo, Digitaria spp.; details: for Plant response rating, Crabgrass: 0 to 10 scale
In short: as §1

[18] = system: morningglory; assay type: in vivo, Ipomoea hederacea; details: for Plant response rating, Morningglory: 0 to 10 scale
In short: as §1

[19] = system: cocklebur; assay type: in vivo, Xanthium pensylvanicum; details: for Plant response rating, Cocklebur: 0 to 10 scale
In short: as §1

[20] = system: cotton; assay type: in vivo, Gossypium hirsutum; details: for Plant response rating, Cotton: 0 to 10 scale
In short: as §1

[21] = system: blackgrass; assay type: in vivo, Alopecurus myosuroides; details: for Plant response rating, Blackgrass: 0 to 10 scale
In short: as §1

[22] = system: sorghum; assay type: in vivo, Sorghum bicolor; details: for Plant response rating, Sorghum: 0 to 10 scale
In short: as §1

[23] = system: bedstraw; assay type: in vivo, Galium aparine; details: for Plant response rating, Bedstraw: 0 to 10 scale
In short: as §1

CC(C)Oc1cc(-c2nn3c(c2Cl)CCCC3)c(Cl)cc1Cl [Compound 70]
Plant response rating, Velvetleaf ([1]; POSTEMERGENCE, Rate 50 g/ha): 10
Plant response rating, Velvetleaf ([1]; PREEMERGENCE, Rate 50 g/ha): 0
Plant response rating (0 to 10 scale), Velvetleaf ([1]; PREEMERGENCE, Rate 200 g/ha): 5
Plant response rating, Velvetleaf ([1]; Rate 200 g/ha, POSTEMERGENCE): 10
Plant response rating, Wheat ([2]; POSTEMERGENCE, Rate 50 g/ha): 4
Plant response rating, Wheat ([2]; PREEMERGENCE, Rate 50 g/ha): 2
Plant response rating (0 to 10 scale), Wheat ([2]; PREEMERGENCE, Rate 200 g/ha): 3
Plant response rating, Wheat ([2]; Rate 200 g/ha, POSTEMERGENCE): 5
Plant response rating, Wild oat ([3]; POSTEMERGENCE, Rate 50 g/ha): 2
Plant response rating, Wild oat ([3]; PREEMERGENCE, Rate 50 g/ha): 2
Plant response rating (0 to 10 scale), Wild oat ([3]; PREEMERGENCE, Rate 200 g/ha): 3
Plant response rating, Wild oat ([3]; Rate 200 g/ha, POSTEMERGENCE): 3
Plant response rating, Wild buckwheat ([4]; POSTEMERGENCE, Rate 50 g/ha): 10
Plant response rating, Wild buckwheat ([4]; PREEMERGENCE, Rate 50 g/ha): 8
Plant response rating (0 to 10 scale), Wild buckwheat ([4]; PREEMERGENCE, Rate 200 g/ha): 8
Plant response rating, Wild buckwheat ([4]; Rate 200 g/ha, POSTEMERGENCE): 10
Plant response rating, Sugar beet ([5]; POSTEMERGENCE, Rate 50 g/ha): 10
Plant response rating, Sugar beet ([5]; PREEMERGENCE, Rate 50 g/ha): 6
Plant response rating (0 to 10 scale), Sugar beet ([5]; PREEMERGENCE, Rate 200 g/ha): 10
Plant response rating, Sugar beet ([5]; Rate 200 g/ha, POSTEMERGENCE): 10
Plant response rating, Chickweed ([6]; POSTEMERGENCE, Rate 50 g/ha): 2
Plant response rating, Chickweed ([6]; PREEMERGENCE, Rate 50 g/ha): 0
Plant response rating (0 to 10 scale), Chickweed ([6]; PREEMERGENCE, Rate 200 g/ha): 0
Plant response rating, Chickweed ([6]; Rate 200 g/ha, POSTEMERGENCE): 3
Plant response rating, Rice ([7]; POSTEMERGENCE, Rate 50 g/ha): 5
Plant response rating, Rice ([7]; PREEMERGENCE, Rate 50 g/ha): 0
Plant response rating (0 to 10 scale), Rice ([7]; PREEMERGENCE, Rate 200 g/ha): 0
Plant response rating, Rice ([7]; Rate 200 g/ha, POSTEMERGENCE): 5
Plant response rating, Lambsquarter ([8]; POSTEMERGENCE, Rate 50 g/ha): 9
Plant response rating, Lambsquarter ([8]; PREEMERGENCE, Rate 50 g/ha): 7
Plant response rating (0 to 10 scale), Lambsquarter ([8]; PREEMERGENCE, Rate 200 g/ha): 10
Plant response rating, Lambsquarter ([8]; Rate 200 g/ha, POSTEMERGENCE): 10
Plant response rating, Soybean ([9]; POSTEMERGENCE, Rate 50 g/ha): 5
Plant response rating, Soybean ([9]; PREEMERGENCE, Rate 50 g/ha): 0
Plant response rating (0 to 10 scale), Soybean ([9]; PREEMERGENCE, Rate 200 g/ha): 0
Plant response rating, Soybean ([9]; Rate 200 g/ha, POSTEMERGENCE): 6
Plant response rating, Barley ([10]; POSTEMERGENCE, Rate 50 g/ha): 3
Plant response rating, Barley ([10]; PREEMERGENCE, Rate 50 g/ha): 0
Plant response rating (0 to 10 scale), Barley ([10]; PREEMERGENCE, Rate 200 g/ha): 0
Plant response rating, Barley ([10]; Rate 200 g/ha, POSTEMERGENCE): 4
Plant response rating, Barnyardgrass ([11]; POSTEMERGENCE, Rate 50 g/ha): 6
Plant response rating, Barnyardgrass ([11]; PREEMERGENCE, Rate 50 g/ha): 0
Plant response rating (0 to 10 scale), Barnyardgrass ([11]; PREEMERGENCE, Rate 200 g/ha): 0
Plant response rating, Barnyardgrass ([11]; Rate 200 g/ha, POSTEMERGENCE): 7
Plant response rating, Corn ([12]; POSTEMERGENCE, Rate 50 g/ha): 4
Plant response rating, Corn ([12]; PREEMERGENCE, Rate 50 g/ha): 0
Plant response rating (0 to 10 scale), Corn ([12]; PREEMERGENCE, Rate 200 g/ha): 0
Plant response rating, Corn ([12]; Rate 200 g/ha, POSTEMERGENCE): 4
Plant response rating, Rape ([13]; POSTEMERGENCE, Rate 50 g/ha): 7
Plant response rating, Rape ([13]; PREEMERGENCE, Rate 50 g/ha): 2
Plant response rating (0 to 10 scale), Rape ([13]; PREEMERGENCE, Rate 200 g/ha): 3
Plant response rating, Rape ([13]; Rate 200 g/ha, POSTEMERGENCE): 9
Plant response rating, Nutsedge ([14]; POSTEMERGENCE, Rate 50 g/ha): 1
Plant response rating, Nutsedge ([14]; PREEMERGENCE, Rate 50 g/ha): 0
Plant response rating (0 to 10 scale), Nutsedge ([14]; PREEMERGENCE, Rate 200 g/ha): 0
Plant response rating, Nutsedge ([14]; Rate 200 g/ha, POSTEMERGENCE): 5
Plant response rating, Giant foxtail ([15]; POSTEMERGENCE, Rate 50 g/ha): 5
Plant response rating, Giant foxtail ([15]; PREEMERGENCE, Rate 50 g/ha): 0
Plant response rating (0 to 10 scale), Giant foxtail ([15]; PREEMERGENCE, Rate 200 g/ha): 4
Plant response rating, Giant foxtail ([15]; Rate 200 g/ha, POSTEMERGENCE): 5
Plant response rating, Cheatgrass ([16]; POSTEMERGENCE, Rate 50 g/ha): 3
Plant response rating, Cheatgrass ([16]; PREEMERGENCE, Rate 50 g/ha): 0
Plant response rating (0 to 10 scale), Cheatgrass ([16]; PREEMERGENCE, Rate 200 g/ha): 2
Plant response rating, Cheatgrass ([16]; Rate 200 g/ha, POSTEMERGENCE): 4
Plant response rating, Crabgrass ([17]; POSTEMERGENCE, Rate 50 g/ha): 3
Plant response rating, Crabgrass ([17]; PREEMERGENCE, Rate 50 g/ha): 0
Plant response rating (0 to 10 scale), Crabgrass ([17]; PREEMERGENCE, Rate 200 g/ha): 2
Plant response rating, Crabgrass ([17]; Rate 200 g/ha, POSTEMERGENCE): 6
Plant response rating, Morningglory ([18]; POSTEMERGENCE, Rate 50 g/ha): 7
Plant response rating, Morningglory ([18]; PREEMERGENCE, Rate 50 g/ha): 0
Plant response rating (0 to 10 scale), Morningglory ([18]; PREEMERGENCE, Rate 200 g/ha): 0
Plant response rating, Morningglory ([18]; Rate 200 g/ha, POSTEMERGENCE): 8
Plant response rating, Cocklebur ([19]; POSTEMERGENCE, Rate 50 g/ha): 8
Plant response rating, Cocklebur ([19]; PREEMERGENCE, Rate 50 g/ha): 0
Plant response rating (0 to 10 scale), Cocklebur ([19]; PREEMERGENCE, Rate 200 g/ha): 0
Plant response rating, Cocklebur ([19]; Rate 200 g/ha, POSTEMERGENCE): 8
Plant response rating, Cotton ([20]; POSTEMERGENCE, Rate 50 g/ha): 10
Plant response rating, Cotton ([20]; PREEMERGENCE, Rate 50 g/ha): 0
Plant response rating (0 to 10 scale), Cotton ([20]; PREEMERGENCE, Rate 200 g/ha): 0
Plant response rating, Cotton ([20]; Rate 200 g/ha, POSTEMERGENCE): 10
Plant response rating, Blackgrass ([21]; PREEMERGENCE, Rate 50 g/ha): 0
Plant response rating (0 to 10 scale), Blackgrass ([21]; PREEMERGENCE, Rate 200 g/ha): 0
Plant response rating, Blackgrass ([21]; Rate 200 g/ha, POSTEMERGENCE): 3
Plant response rating, Sorghum ([22]; POSTEMERGENCE, Rate 50 g/ha): 5
Plant response rating, Sorghum ([22]; PREEMERGENCE, Rate 50 g/ha): 0
Plant response rating (0 to 10 scale), Sorghum ([22]; PREEMERGENCE, Rate 200 g/ha): 0
Plant response rating, Sorghum ([22]; Rate 200 g/ha, POSTEMERGENCE): 6
Plant response rating, Bedstraw ([23]; POSTEMERGENCE, Rate 50 g/ha): 8
Plant response rating, Bedstraw ([23]; PREEMERGENCE, Rate 50 g/ha): 1
Plant response rating (0 to 10 scale), Bedstraw ([23]; PREEMERGENCE, Rate 200 g/ha): 6
Plant response rating, Bedstraw ([23]; Rate 200 g/ha, POSTEMERGENCE): 7
